The values that follow come from patent US20230346737A1, “COMPOUNDS AND METHODS FOR PREVENTION AND TREATMENT OF VIRUS INFECTIONS” (priority 2020, published 2023).

The target in assay [1] is T1, sodium taurocholate cotransporting polypeptide (NTCP) (Homo sapiens, UniProt Q14973).
T1 construct: expressed in transfected cells; host or cells: Huh7 (NTCP); E. coli BL21(DE3) (GST fusion bait)
T1 sequence (Q14973 1-349): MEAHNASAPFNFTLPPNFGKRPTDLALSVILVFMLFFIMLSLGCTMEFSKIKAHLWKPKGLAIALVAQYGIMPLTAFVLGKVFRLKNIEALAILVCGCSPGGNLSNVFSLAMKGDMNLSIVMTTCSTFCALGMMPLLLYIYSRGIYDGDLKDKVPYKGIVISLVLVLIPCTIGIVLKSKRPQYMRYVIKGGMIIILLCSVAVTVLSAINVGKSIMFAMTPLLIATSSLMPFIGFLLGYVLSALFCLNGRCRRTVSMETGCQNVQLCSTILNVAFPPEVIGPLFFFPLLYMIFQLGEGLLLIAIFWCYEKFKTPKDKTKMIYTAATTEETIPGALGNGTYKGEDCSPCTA
Nature of the assay: PreS1-NTCP pull down assay. Conditions: 0, 10, 20 and 100 μM. Format: binding. On the procedure:
Expression and purification of recombinant fusion proteins and the GST pull-down assay were performed as described previously. Briefly, expression of GST fusion proteins in E. coli BL21(DE3) was induced with 0.5 mM isopropyl-β-D-thiogalactopyranoside, then the bacterial cells were lysed by sonication at 4° C. in PBS containing 1% Triton X-100 (PBST) and separated into soluble and insoluble fractions by centrifugation at 13,800 g for 10 min at 4° C. To perform GST pull-down assays, the soluble fraction of bacterial lysates containing GST-fusion proteins was incubated for 3 hours at 4° C. with glutathione-Sepharose 4B beads (GE Healthcare Bio-Sciences), then the beads were washed 3 times with PBST before being incubated at 4° C. overnight with Huh7 cell lysate with overexpressed IA-NTCP prepared by lysis in PBST containing a protease inhibitor cocktail (1 mM PMSF, 10 μg/ml of aprotinin, 1 μg/ml of pepstatin A, 1 μg/ml of leupeptin). The beads were then washed with PBST, resuspended in sample buffer (12.5 mM Tris-HCl, pH 6.8, 2% SDS, 20% glycerol, 0.25% bromphenol blue, 5% b-mercaptoethanol), and subjected to SDS-polyacrylamide gel electrophoresis and examined by Western blot analysis.
To evaluate the effects of inhibitor on inhibiting HBV infection, cell lysis extracted from cells treated with AR101-DS3 or AR101-DS4.

For assay [2], the target named is T2, SARS-CoV-2 3CLpro (Severe acute respiratory syndrome coronavirus 2, UniProt P0DTD1).
T2 construct: containing 0.25 μM SARS-CoV-2 3CLpro
As to the kind of experiment: Real-time FRET protease assay with SARS-CoV-2 3CLpro and dose-response curve analysis. The assay is classed as biochemical.

[3] abbreviates: Real-Time, 0-100 μM, pre-incubated 1 h at 37° C. with 0.25 μM 3CLpro, read-out: IC50 (μM), inhibition of SARS-CoV-2 3CLpro (Real-Time).

Molecules are shown by their SMILES. Read-outs that look alike come from different tables or passages of the source.

For the compound `C=C(CC[C@@H](C(=O)O)[C@H]1C[C@H](OC(C)=O)[C@@]2(C)C3=C(CC[C@]12C)[C@@]1(C)CC[C@H](O)C(C)(C)[C@@H]1CC3)C(C)C` [AR101-DS3], the “amount of NTCP from pull down assay” value in assay [1] was “dose dependent increase”.
Still for that read-out and setting: the entry for `C=C(CC[C@@H](C(=O)O)[C@H]1CC[C@@]2(C)C3=CC[C@H]4C(C)(C)[C@@H](O)CC[C@]4(C)C3=CC[C@]12C)C(C)C` [AR101-DS4] is “significant decreased”.
Broadly, the IC50 is the point on the concentration scale where inhibition reaches its midpoint. In the case of `CC1=CCC(C(C)(C)O)C[C@@H]1O` (stereo partly drawn) [ARH013-DS1, trans-p-menth-6-ene-2,8-diol], in assay [2], the IC50 is 32.9 µM.
For the compound `CC(=O)O[C@@H]1[C@@H](OC(C)=O)[C@@H](O)[C@H](Oc2c(-c3ccc(O)cc3)oc3cc(O)cc(O)c3c2=O)O[C@H]1C` [ARH 007-DS4, kaempferol-3-O-(3,4-O-diacetyl-Alpha-L-rhamnopyranoside)], the IC50 in assay [2] (setting [3]) was 18.8 µM.
As for `CC(=O)O[C@@H]1[C@@H](O)[C@@H](OC(C)=O)[C@H](Oc2c(-c3ccc(O)cc3)oc3cc(O)cc(O)c3c2=O)O[C@H]1C` [ARH 007-DS5, kaempferol-3-O-(2,4-O-diacetyl-Alpha-L-rhamnopyranoside)], in assay [2] (setting [3]), the IC50 was found to be 48.2 µM.
As to `CC(=O)/C=C(O)/C=C/c1ccc(O)c(O)c1` [ARH 019-DS1, 6-(3,4-dihydroxyphenyl)-4-hydroxyhexa-3,5-dien-2-one], in assay [2] (setting [3]), the IC50 worked out at 19.2 µM.
For the compound `O=c1cc(O)oc(/C=C/c2ccc(O)c(O)c2)c1` [ARH 019-DS2, 2-[(E)-2-(3,4-dihydroxyphenyl)ethenyl]-6-hydroxypyran-4-one], the IC50 in assay [2] (setting [3]) stood at 2.49 µM.
Regarding `C=C1CCCC(C)(C)C1Cc1c(O)cc2oc(-c3ccc(O)c(O)c3)cc(=O)c2c1O` (stereo not drawn) [ARH 020-DS1, ugonin J], the 50% inhibitory concentration (IC50) in assay [2] (setting [3]) worked out at 14.9 µM.
On the same count and under the same terms, the figure for `CC1(C)CCC[C@@]2(C)Oc3c(O)ccc(-c4oc5cc(O)cc(O)c5c(=O)c4O)c3C[C@@H]12` [ARH 020-DS2, ugonin N] is 6.33 µM.
